The source made the active and inactive calls. How the calls were made is not given here.
Legend:
Test in all cases: kinase panel binding selectivity, selectivity assay, biochemical, KINOMEscan (AID 1982)
[1] = target: 5'-AMP-activated protein kinase catalytic subunit alpha-1 (Homo sapiens) (UniProt Q13131); conditions: KINOMEscan 353-kinase binding panel, qPCR; AMPK-alpha1; at 10 µM; stronger effect = lower value
[2] = target: Dual specificity protein kinase CLK2 (Homo sapiens) (UniProt P49760); conditions: KINOMEscan 353-kinase binding panel, qPCR, at 10 µM, stronger effect = lower value
TGFBR1 = conditions: KINOMEscan 353-kinase binding panel, qPCR, at 10 µM, stronger effect = lower value
DAPK2 = conditions: KINOMEscan 353-kinase binding panel, qPCR, at 10 µM, stronger effect = lower value
[3] = target: Serine/threonine-protein kinase MRCK alpha (Homo sapiens) (UniProt Q5VT25); conditions: KINOMEscan 353-kinase binding panel, qPCR; MRCKA; at 10 µM; stronger effect = lower value
[4] = target: Mitogen-activated protein kinase 10 (Homo sapiens) (UniProt P53779); conditions: KINOMEscan 353-kinase binding panel, qPCR; JNK3; at 10 µM; stronger effect = lower value
[5] = target: Tyrosine-protein kinase Yes (Homo sapiens) (UniProt P07947); conditions: KINOMEscan 353-kinase binding panel, qPCR, at 10 µM, stronger effect = lower value
[6] = target: Serine/threonine-protein kinase pim-1 (Homo sapiens) (UniProt P11309); conditions: KINOMEscan 353-kinase binding panel, qPCR; PIM1; at 10 µM; stronger effect = lower value
[7] = target: Hepatocyte growth factor receptor (Homo sapiens) (UniProt P08581); conditions: KINOMEscan 353-kinase binding panel, qPCR; MET; at 10 µM; stronger effect = lower value
[8] = target: cGMP-dependent protein kinase 2 (Homo sapiens) (UniProt Q13237); conditions: KINOMEscan 353-kinase binding panel, qPCR; PRKG2; at 10 µM; stronger effect = lower value
[9] = target: Ephrin type-A receptor 2 (Homo sapiens) (UniProt P29317); conditions: KINOMEscan 353-kinase binding panel, qPCR; EPHA2; at 10 µM; stronger effect = lower value
[10] = target: Inhibitor of nuclear factor kappa-B kinase subunit epsilon (Homo sapiens) (UniProt Q14164); conditions: KINOMEscan 353-kinase binding panel, qPCR; IKK-epsilon; at 10 µM; stronger effect = lower value
DMPK = conditions: KINOMEscan 353-kinase binding panel, qPCR, at 10 µM, stronger effect = lower value
YANK2 = conditions: KINOMEscan 353-kinase binding panel, qPCR, at 10 µM, stronger effect = lower value
STK16 = conditions: KINOMEscan 353-kinase binding panel, qPCR, at 10 µM, stronger effect = lower value
CDK3 = conditions: KINOMEscan 353-kinase binding panel, qPCR, at 10 µM, stronger effect = lower value
[11] = target: Mitogen-activated protein kinase kinase kinase kinase 4 (Homo sapiens) (UniProt O95819); conditions: KINOMEscan 353-kinase binding panel, qPCR; MAP4K4; at 10 µM; stronger effect = lower value
EPHA4 = conditions: KINOMEscan 353-kinase binding panel, qPCR, at 10 µM, stronger effect = lower value
[12] = target: Tyrosine-protein kinase Srms (Homo sapiens) (UniProt Q9H3Y6); conditions: KINOMEscan 353-kinase binding panel, qPCR, at 10 µM, stronger effect = lower value
[13] = target: Tyrosine-protein kinase FRK (Homo sapiens) (UniProt P42685); conditions: KINOMEscan 353-kinase binding panel, qPCR, at 10 µM, stronger effect = lower value
MLK1 = conditions: KINOMEscan 353-kinase binding panel, qPCR, at 10 µM, stronger effect = lower value
GAK = conditions: KINOMEscan 353-kinase binding panel, qPCR, at 10 µM, stronger effect = lower value
[14] = target: Leukocyte tyrosine kinase receptor (Homo sapiens) (UniProt P29376); conditions: KINOMEscan 353-kinase binding panel, qPCR; LTK; at 10 µM; stronger effect = lower value
PKN1 = conditions: KINOMEscan 353-kinase binding panel, qPCR, at 10 µM, stronger effect = lower value
[15] = target: SRSF protein kinase 1 (Homo sapiens) (UniProt Q96SB4); conditions: KINOMEscan 353-kinase binding panel, qPCR; SRPK1; at 10 µM; stronger effect = lower value
ACVR2B = conditions: KINOMEscan 353-kinase binding panel, qPCR, at 10 µM, stronger effect = lower value
PIK3CA = conditions: KINOMEscan 353-kinase binding panel, qPCR, at 10 µM, stronger effect = lower value
[16] = target: Aurora kinase A (Homo sapiens) (UniProt O14965); conditions: KINOMEscan 353-kinase binding panel, qPCR; AURKA; at 10 µM; stronger effect = lower value
DDR2 = conditions: KINOMEscan 353-kinase binding panel, qPCR, at 10 µM, stronger effect = lower value
PCTK1 = conditions: KINOMEscan 353-kinase binding panel, qPCR, at 10 µM, stronger effect = lower value
[17] = target: Casein kinase I isoform gamma-2 (Homo sapiens) (UniProt P78368); conditions: KINOMEscan 353-kinase binding panel, qPCR; CSNK1G2; at 10 µM; stronger effect = lower value
LATS2 = conditions: KINOMEscan 353-kinase binding panel, qPCR, at 10 µM, stronger effect = lower value
YANK3 = conditions: KINOMEscan 353-kinase binding panel, qPCR, at 10 µM, stronger effect = lower value
BMX = conditions: KINOMEscan 353-kinase binding panel, qPCR, at 10 µM, stronger effect = lower value
MARK1 = conditions: KINOMEscan 353-kinase binding panel, qPCR, at 10 µM, stronger effect = lower value
RPS6KA1(Kin.Dom.1) = conditions: KINOMEscan 353-kinase binding panel, qPCR, at 10 µM, stronger effect = lower value

Measured: percent of control binding

Dual specificity protein kinase CLK2 (Homo sapiens), sequence (P49760 whole entry, looked up): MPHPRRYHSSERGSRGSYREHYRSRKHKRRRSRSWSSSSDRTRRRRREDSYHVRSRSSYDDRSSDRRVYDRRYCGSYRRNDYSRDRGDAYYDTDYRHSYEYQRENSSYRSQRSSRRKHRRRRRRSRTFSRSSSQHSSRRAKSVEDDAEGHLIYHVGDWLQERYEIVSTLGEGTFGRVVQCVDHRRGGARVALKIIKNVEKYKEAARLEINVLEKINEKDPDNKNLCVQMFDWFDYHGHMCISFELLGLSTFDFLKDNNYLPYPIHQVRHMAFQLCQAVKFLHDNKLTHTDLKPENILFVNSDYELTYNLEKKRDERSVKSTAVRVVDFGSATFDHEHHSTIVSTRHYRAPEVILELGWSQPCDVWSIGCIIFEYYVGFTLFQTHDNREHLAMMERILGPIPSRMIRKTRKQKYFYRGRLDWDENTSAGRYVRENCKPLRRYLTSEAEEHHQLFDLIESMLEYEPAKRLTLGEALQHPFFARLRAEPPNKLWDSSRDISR
Serine/threonine-protein kinase MRCK alpha (Homo sapiens), sequence (Q5VT25 whole entry, looked up): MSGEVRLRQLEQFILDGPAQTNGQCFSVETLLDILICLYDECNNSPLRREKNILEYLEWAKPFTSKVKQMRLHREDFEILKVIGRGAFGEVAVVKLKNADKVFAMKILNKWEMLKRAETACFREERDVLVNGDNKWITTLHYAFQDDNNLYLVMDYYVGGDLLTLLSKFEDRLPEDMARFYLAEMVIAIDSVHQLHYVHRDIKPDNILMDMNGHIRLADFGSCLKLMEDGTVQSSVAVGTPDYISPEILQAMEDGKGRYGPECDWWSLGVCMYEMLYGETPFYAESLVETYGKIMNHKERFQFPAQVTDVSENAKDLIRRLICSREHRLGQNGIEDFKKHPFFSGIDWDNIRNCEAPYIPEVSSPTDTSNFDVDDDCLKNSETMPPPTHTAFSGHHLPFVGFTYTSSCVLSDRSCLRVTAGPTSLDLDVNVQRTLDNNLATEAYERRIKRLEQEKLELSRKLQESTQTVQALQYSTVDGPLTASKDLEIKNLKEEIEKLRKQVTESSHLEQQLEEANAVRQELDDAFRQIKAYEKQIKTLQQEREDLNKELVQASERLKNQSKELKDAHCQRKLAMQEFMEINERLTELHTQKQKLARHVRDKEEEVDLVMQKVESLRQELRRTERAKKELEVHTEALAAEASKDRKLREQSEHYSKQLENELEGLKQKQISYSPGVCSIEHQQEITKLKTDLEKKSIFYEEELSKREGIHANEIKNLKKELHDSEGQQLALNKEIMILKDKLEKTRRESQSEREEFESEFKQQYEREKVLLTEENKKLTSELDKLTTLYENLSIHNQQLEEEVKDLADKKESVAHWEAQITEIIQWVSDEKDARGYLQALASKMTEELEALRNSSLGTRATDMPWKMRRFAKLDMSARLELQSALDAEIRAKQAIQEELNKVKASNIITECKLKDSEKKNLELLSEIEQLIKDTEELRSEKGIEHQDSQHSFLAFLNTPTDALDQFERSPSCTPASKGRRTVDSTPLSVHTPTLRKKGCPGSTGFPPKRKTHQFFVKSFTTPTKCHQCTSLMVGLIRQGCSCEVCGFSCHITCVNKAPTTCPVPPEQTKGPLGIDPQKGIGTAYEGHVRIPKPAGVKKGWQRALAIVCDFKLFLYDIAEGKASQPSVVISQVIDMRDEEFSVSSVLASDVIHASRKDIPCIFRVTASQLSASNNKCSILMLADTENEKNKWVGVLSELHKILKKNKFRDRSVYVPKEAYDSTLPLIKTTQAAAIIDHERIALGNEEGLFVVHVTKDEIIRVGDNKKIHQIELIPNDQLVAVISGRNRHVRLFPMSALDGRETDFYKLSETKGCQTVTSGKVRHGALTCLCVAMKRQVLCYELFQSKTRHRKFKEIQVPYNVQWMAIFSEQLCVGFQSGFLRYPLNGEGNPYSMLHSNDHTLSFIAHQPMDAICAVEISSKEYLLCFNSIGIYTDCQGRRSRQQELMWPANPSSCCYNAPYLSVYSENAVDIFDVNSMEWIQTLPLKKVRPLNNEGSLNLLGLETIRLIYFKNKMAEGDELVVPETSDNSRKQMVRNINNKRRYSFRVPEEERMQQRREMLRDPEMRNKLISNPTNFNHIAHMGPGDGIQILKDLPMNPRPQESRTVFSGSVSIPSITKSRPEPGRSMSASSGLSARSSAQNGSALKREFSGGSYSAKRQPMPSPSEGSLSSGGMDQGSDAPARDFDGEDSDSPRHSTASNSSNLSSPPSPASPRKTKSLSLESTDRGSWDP
Aurora kinase A (Homo sapiens), sequence (O14965 whole entry, looked up): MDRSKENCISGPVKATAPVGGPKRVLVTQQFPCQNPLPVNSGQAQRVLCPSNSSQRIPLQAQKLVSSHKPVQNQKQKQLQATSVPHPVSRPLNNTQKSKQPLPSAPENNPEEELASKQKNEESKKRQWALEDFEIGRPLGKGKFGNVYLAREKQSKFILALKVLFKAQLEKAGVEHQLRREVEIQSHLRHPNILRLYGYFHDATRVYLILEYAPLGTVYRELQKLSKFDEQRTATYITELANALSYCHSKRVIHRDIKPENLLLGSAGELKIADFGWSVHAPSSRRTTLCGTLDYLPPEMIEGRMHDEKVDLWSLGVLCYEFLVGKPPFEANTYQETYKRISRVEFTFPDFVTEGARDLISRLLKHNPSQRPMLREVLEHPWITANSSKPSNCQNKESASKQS
cGMP-dependent protein kinase 2 (Homo sapiens), sequence (Q13237 whole entry, looked up): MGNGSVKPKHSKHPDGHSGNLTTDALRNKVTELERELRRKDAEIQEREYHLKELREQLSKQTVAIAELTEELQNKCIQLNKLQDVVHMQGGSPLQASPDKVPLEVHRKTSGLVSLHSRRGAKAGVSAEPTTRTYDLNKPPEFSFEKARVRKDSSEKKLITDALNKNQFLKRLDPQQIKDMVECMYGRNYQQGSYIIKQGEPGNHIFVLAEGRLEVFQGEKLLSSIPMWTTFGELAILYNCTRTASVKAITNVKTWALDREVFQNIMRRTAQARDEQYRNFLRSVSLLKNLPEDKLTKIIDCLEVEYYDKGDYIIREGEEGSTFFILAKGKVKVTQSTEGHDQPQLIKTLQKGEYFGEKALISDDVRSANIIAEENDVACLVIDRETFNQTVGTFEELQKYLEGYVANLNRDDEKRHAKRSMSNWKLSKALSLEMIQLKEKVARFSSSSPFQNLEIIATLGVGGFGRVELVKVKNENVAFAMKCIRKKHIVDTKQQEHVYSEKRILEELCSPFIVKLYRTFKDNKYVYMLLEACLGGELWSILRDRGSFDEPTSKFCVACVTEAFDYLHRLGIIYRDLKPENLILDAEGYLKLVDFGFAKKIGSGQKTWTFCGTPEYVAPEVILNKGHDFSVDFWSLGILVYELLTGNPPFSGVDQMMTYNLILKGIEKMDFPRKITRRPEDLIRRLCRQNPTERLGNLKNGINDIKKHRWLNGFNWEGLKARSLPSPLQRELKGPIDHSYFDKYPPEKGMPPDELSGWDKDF
Tyrosine-protein kinase Yes (Homo sapiens), sequence (P07947 whole entry, looked up): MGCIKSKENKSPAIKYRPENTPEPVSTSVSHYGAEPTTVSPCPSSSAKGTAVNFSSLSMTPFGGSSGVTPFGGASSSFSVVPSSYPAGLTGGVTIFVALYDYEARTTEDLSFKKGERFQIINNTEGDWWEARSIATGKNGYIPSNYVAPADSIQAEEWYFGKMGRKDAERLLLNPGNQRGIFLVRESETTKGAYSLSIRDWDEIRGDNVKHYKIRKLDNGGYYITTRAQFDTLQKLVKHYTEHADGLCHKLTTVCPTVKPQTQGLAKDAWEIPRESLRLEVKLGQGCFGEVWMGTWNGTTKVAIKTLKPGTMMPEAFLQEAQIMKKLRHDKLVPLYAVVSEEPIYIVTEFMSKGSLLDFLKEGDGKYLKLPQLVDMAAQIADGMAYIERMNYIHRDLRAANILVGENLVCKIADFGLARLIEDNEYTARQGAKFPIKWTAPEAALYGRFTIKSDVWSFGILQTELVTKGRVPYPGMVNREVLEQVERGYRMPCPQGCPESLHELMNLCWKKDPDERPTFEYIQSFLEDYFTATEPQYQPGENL
Tyrosine-protein kinase Srms (Homo sapiens), sequence (Q9H3Y6 whole entry, looked up): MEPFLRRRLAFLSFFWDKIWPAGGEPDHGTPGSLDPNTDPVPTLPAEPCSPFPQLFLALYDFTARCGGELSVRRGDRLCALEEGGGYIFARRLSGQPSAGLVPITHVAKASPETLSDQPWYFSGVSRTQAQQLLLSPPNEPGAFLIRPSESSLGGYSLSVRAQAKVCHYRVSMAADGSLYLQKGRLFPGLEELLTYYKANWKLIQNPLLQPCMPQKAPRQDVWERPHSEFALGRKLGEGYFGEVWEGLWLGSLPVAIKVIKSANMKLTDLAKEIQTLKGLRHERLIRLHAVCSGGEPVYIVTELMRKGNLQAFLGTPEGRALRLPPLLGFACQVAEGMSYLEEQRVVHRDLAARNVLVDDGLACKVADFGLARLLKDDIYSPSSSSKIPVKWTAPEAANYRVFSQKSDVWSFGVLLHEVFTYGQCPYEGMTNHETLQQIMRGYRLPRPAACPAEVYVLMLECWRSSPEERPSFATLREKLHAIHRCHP
Serine/threonine-protein kinase pim-1 (Homo sapiens), sequence (P11309 whole entry, looked up): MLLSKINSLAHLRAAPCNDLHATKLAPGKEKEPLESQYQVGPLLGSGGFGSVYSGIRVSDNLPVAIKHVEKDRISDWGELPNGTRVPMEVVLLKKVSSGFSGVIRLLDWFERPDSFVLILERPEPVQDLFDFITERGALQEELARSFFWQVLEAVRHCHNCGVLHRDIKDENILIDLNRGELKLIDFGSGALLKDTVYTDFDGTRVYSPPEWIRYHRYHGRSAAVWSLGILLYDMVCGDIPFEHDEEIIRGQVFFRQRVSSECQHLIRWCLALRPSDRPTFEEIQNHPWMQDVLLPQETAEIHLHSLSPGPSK

Cc1cc2nc(NCCCO)n(CC(=O)c3cc(C(C)(C)C)c(O)c(C(C)(C)C)c3)c2cc1C
inactive: [1] 94% | [2] 80% | TGFBR1 92% | DAPK2 100% | [3] 90% | [4] 86% | [5] 100% | [6] 100% | [7] 97% | [8] 100% | [9] 100% | [10] 86% | DMPK 93% | YANK2 100% | STK16 77% | CDK3 82% | [11] 66% | EPHA4 86% | [12] 100% | [13] 89% | MLK1 100% | GAK 90% | [14] 92% | PKN1 100% | [15] 100% | ACVR2B 100% | PIK3CA 78% | [16] 96% | DDR2 65% | PCTK1 84% | [17] 100% | LATS2 89% | YANK3 100% | BMX 84% | MARK1 100% | RPS6KA1(Kin.Dom.1) 59%
